The values that follow are results of earlier work, collected in patent US10517855B1, “Interleukins activity inhibiting composition” (priority 2019, dated 2019).

Structures are written as SMILES.

The subject of data set [1] is avian malaria. To be noted: in vivo.
For data set [2] the following is noted: preclinical studies.
For data set [3], the system named is haloperidol-induced catalepsy. The conditions noted are these: preclinical studies.
Data set [4] has as its system MK-801-induced hyperlocomotion, working memory deficit and social withdrawal. The conditions noted are these: preclinical studies.
Data set [5] deals with apomorphine-induced stereotypy. The conditions noted are these: preclinical studies.
Data set [6] concerns amphetamine-induced lethality and stereotypy. To be noted: preclinical studies.

With `C/C=C1/CN2CC[C@@]34c5cc(O)ccc5N(C)[C@]35OC[C@@]4(C(=O)OC)[C@H]1C[C@H]25` [akuammine], the “activity against avian malaria” value in data set [1] was “inactive”.
On to `COC(=O)C1=CO[C@@H](C)[C@@H]2Cn3ccc4c5ccccc5nc-4c3C[C@H]12` [Alstonine], for which the anxiolytic-like effects entry in data set [2] is reported as “possesses anxiolytic-like effects”. For the same compound, the haloperidol-induced catalepsy entry in data set [3] is on record as “attenuates”. In data set [4], the MK-801-induced hyperlocomotion result is “attenuates”, the MK-801-induced social withdrawal result is “attenuates” and the “MK-801-induced working memory deficit” value was “attenuates”. Moreover, the apomorphine-induced stereotypy result in data set [5] is on record as “attenuates”. Moreover, in data set [6], the amphetamine-induced lethality entry is listed as “attenuates” and the amphetamine-induced stereotypy entry is reported as “attenuates”.
